In PubChem BioAssay (NCI):
Where “and” joins values, the source holds several entries; their conditions need not be identical. Equal values may be shown once.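 Briefly, cells in 96-well plates were exposed to five compound concentrations for 48 h, and endpoints were estimated by linear interpolation. Here, GI50 denotes the concentration required for 50% inhibition of growth. The concentration for full growth arrest is given as TGI.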

What was measured:
Assay in all cases: NCI anticancer screen, dose series, 48 h
[1] = test system: RPMI-8226 leukemia
[2] = test system: BT-549 breast
[3] = test system: A498 renal
[4] = test system: UACC-257 melanoma
[5] = test system: KM12 colon
[6] = test system: SK-MEL-5 melanoma
[7] = test system: A549 NSCLC
[8] = test system: LOX IMVI melanoma
[9] = test system: SF-268 CNS
[10] = test system: SNB-19 CNS

Compound | GI50 [1] | TGI [1] | GI50 [2] | TGI [2] | GI50 [3] | TGI [3] | GI50 [4] | TGI [4] | GI50 [5] | TGI [5] | GI50 [6] | TGI [6] | GI50 [7] | TGI [7] | GI50 [8] | TGI [8] | GI50 [9] | TGI [9] | GI50 [10] | TGI [10]
Nc1nc(N)c2cc(CNc3ccc(Cl)c(Cl)c3)ccc2n1 | 1.61 µM | 3.62 µM | 1.4 µM | 2.78 µM | 1.76 µM | 8.54 µM | 0.891 µM | 2.24 µM | 0.866 µM | 2.13 µM | 0.519 µM | 1.82 µM | 0.0631 µM | 1.34 µM | 0.146 µM | 1.55 µM | 0.544 µM | 1.85 µM | 0.822 µM | 2.09 µM
N/C(=N\O)c1ncc(-c2ccc(C(F)(F)F)cc2)c(NC2CCCCCC2)n1 | 8.66 µM and 2.66 µM | 9.54 µM | 4.54 µM | 18.2 µM | 1.96 µM | 15.8 µM | 3.23 µM | 13.2 µM | 6.51 µM and 3.13 µM | 13.1 µM | 4.66 µM and 3.44 µM | 15.5 µM | 2.34 µM | 11.1 µM | 8.76 µM and 2.85 µM | 10.8 µM | 3.64 µM | 15.7 µM | 3.27 µM | 13.8 µM
Fc1ccc(-c2nc(-c3nc4ccc(Cl)cc4[nH]3)cc3c2[nH]c2ccccc23)cc1 | 1.84 µM | 6.58 µM | 4.62 µM | 18.7 µM | 2.01 µM | 9.71 µM | 2.4 µM | 6.62 µM | 3.46 µM | 13.7 µM | 3.52 µM | 15.4 µM | 2.89 µM | 12.3 µM | 2.41 µM | 6.63 µM | 3.66 µM | 17.7 µM | 4.27 µM | > 100 µM
Cc1ccc(-n2c3c(c4c(CN5CCCCC5)c(O)ccc42)CCc2ccccc2C3=O)cc1 | > 100 µM | > 100 µM | > 100 µM | > 100 µM | > 100 µM | > 100 µM | > 100 µM | > 100 µM | > 100 µM | > 100 µM | > 100 µM | > 100 µM | > 100 µM | > 100 µM | > 100 µM | > 100 µM | > 100 µM | > 100 µM | > 100 µM | > 100 µM
CC(C)=CC/C=C(/C)[C@H]1CC[C@]2(C)[C@@H]1CC[C@@H]1[C@@]3(C)CCC(=O)NC(C)(C)[C@@H]3CC[C@]12C | 11.8 µM | 34.6 µM | 18.7 µM | 43.5 µM | 23.6 µM | 67.5 µM | 31.7 µM | > 100 µM | 18.7 µM | 37.5 µM | 13.3 µM | 26.4 µM | 30.2 µM | > 100 µM | 17.9 µM | 32.4 µM | 17.2 µM | 34.6 µM | 25 µM | 72.4 µM
COc1ccc2c(c1)C(=O)c1c-2n(CCCN=[N+]=[N-])c(=O)c2ccccc12 | 51.3 µM | > 100 µM | 89.9 µM | > 100 µM | 21.1 µM | 69.2 µM | > 100 µM | > 100 µM | > 100 µM | > 100 µM | 14.6 µM | > 100 µM | 52.2 µM | > 100 µM | 27.9 µM | > 100 µM | 39.8 µM | > 100 µM | 17.6 µM | > 100 µM
Clc1ccc(-c2nc3c(-c4ccc(Cl)cc4)nc(-c4ccccc4)cn3c2-c2ccc(Cl)cc2)cc1 | > 50 µM | > 50 µM | 14.2 µM | > 50 µM | > 50 µM | > 50 µM | > 50 µM | > 50 µM | > 50 µM | > 50 µM | > 50 µM | > 50 µM | > 50 µM | > 50 µM | > 50 µM | > 50 µM | > 50 µM | > 50 µM | > 50 µM | > 50 µM
